{
  "source": "patent US11198713B2",
  "about": "“Agents modulating beta-catenin functions and methods thereof” (FOG PHARMACEUTICALS, INC., priority 2017, dated 2021)",
  "note": "Numbered stars: 1 amine (or outer) side, 2 acyl side, 3 side chain; on linkers, the order of the positions; unused ones are H or OH. Bridge positions count the residues as written; N and C are the ends. Square brackets hold non-standard residues; d marks the D form. Peptide text beside a SMILES is read from it. dαMeDab(Me) = CN(CC[C@@](C)(N[*:1])C(=O)[*:2])[*:3]; dαMeDap(Me) = CN(C[C@@](C)(N[*:1])C(=O)[*:2])[*:3]; X12 = CN(CC=[*:3])CCC[C@@](C)(N[*:1])C(=O)[*:2]; X2 = O=C(OCC=CCOC(=O)[*:2])[*:1]; S5 = C=CCCC[C@](C)(N)C(=O)O",
  "data": [
    {"target": "T1, full-length beta-catenin (Axin site) (Homo sapiens, UniProt P35222)", "T1 construct": "15 nM full-length beta-catenin, 20 nM FITC labeled peptide in buffer", "T1 sequence (P35222 1-781)": "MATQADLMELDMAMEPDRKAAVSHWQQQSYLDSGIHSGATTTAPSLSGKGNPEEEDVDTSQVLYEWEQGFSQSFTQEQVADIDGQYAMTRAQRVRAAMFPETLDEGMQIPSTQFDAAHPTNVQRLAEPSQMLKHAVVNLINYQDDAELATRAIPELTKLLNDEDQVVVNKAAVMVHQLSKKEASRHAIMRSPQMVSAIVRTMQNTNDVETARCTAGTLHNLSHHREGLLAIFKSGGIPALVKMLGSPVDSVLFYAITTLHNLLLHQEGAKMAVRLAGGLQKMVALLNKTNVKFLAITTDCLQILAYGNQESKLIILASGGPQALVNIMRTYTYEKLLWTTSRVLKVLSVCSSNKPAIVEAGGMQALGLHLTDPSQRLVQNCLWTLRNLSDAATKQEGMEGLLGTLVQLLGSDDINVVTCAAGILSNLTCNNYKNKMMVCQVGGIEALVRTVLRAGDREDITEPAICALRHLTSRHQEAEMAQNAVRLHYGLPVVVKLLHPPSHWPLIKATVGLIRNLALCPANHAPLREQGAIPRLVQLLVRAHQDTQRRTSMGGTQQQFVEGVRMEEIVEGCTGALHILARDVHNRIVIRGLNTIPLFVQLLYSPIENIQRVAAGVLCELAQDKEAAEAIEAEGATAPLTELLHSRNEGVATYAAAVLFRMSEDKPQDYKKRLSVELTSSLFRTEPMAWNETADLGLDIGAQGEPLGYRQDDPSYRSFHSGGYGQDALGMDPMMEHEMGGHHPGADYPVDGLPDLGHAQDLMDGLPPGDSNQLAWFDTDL", "test": "Competition fluorescence polarization assay (Axin site probe)", "assay_type": "binding", "details": "competition fluorescence polarization, Table 2; read-out: in vitro FP EC50", "how_it_was_run": "(§1)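 Competition FP: 15 nM full-length β-catenin pre-incubated 5 min with 20 nM FITC-labelled stapled Axin-site peptide, then titrated peptide added (3-fold series from 5 μM) for 15 min in the dark. Buffer 50 mM Tris pH 8.0, 250 mM NaCl, 2% glycerol, 0.5 mM EDTA; duplicate reads.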", "units": {"EC50": "µM"}, "values": [
      {"smiles": "CC[C@H](C)[C@@H]1NC(=O)[C@H](Cc2c[nH]cn2)NC(=O)[C@H](C)NC(=O)[C@H](CC(=O)O)NC(=O)[C@H](CC(C)C)NC(=O)[C@H]([C@@H](C)CC)NC(=O)[C@](C)(NC(=O)[C@H](C)NC(C)=O)CCCN(C)C(=O)OCC=CCCCC[C@@](C)(C(=O)N[C@@H](CCCNC(=N)N)C(=O)N[C@H](C(=O)N[C@@H](Cc2c[nH]c3ccccc23)C(N)=O)C(C)C)NC1=O", "note": "[FP0507c, Ac-A-MI-I-L-D-A-H-I-S6-R-V-W-NH2]", "EC50": "0.5 to 5"},
      {"smiles": "CC[C@H](C)[C@@H]1NC(=O)C2(NC(=O)[C@H](CCC(N)=O)NC(=O)[C@@H]3CCCN3C(C)=O)CN(C2)C(=O)OCC=CCCCCC[C@](C)(C(=O)N[C@@H](Cc2c[nH]cn2)C(=O)N[C@H](C(=O)N[C@@H](CCCNC(=N)N)C(=O)N[C@@H](CCCNC(=N)N)C(=O)N[C@H](C(=O)N[C@@H](Cc2c[nH]c3ccccc23)C(=O)N[C@@H](CCCNC(=N)N)C(N)=O)C(C)C)C(C)C)NC(=O)[C@H](CC(=O)O)NC(=O)[C@H](CC(C)C)NC1=O", "note": "(single isomer, unassigned) [FP0727c, Ac-P-Q-MA-I-L-D-R7-H-V-R-R-V-W-R-NH2]", "EC50": "0.5 to 5"},
      {"smiles": "CC[C@H](C)[C@@H]1NC(=O)[C@H](Cc2ccccn2)NC(=O)[C@H](C)NC(=O)[C@H](CC(=O)O)NC(=O)[C@H](CC(C)C)NC(=O)[C@H]([C@@H](C)CC)NC(=O)[C@](C)(NC(=O)[C@H](C)NC(C)=O)CCCCCCC=CCOC(=O)N2CC[C@@](C(=O)N[C@@H](CC(N)=O)C(=O)N[C@H](C(=O)N[C@@H](Cc3c[nH]c4ccccc34)C(N)=O)C(C)C)(C2)NC1=O", "note": "(single isomer, unassigned) [FP0558c Isomer 1, Ac-A-R8-I-L-D-A-2pyr-I-MB-N-V-W-NH2]", "EC50": "> 5"},
      {"smiles": "CC[C@H](C)[C@@H]1NC(=O)[C@H](Cc2ccccn2)NC(=O)[C@H](C)NC(=O)[C@H](CC(=O)O)NC(=O)[C@H](CC(C)C)NC(=O)[C@H]([C@@H](C)CC)NC(=O)[C@](C)(NC(=O)[C@H](C)NC(C)=O)CCCCCCC=CCOC(=O)N2CC[C@@](C(=O)N[C@@H](Cc3cccs3)C(=O)N[C@H](C(=O)N[C@@H](Cc3c[nH]c4ccccc34)C(N)=O)C(C)C)(C2)NC1=O", "note": "(single isomer, unassigned) [FP0571c Isomer 2, Ac-A-R8-I-L-D-A-2pyr-I-MB-thi-V-W-NH2]", "EC50": "> 5"},
      {"smiles": "CC[C@H](C)[C@@H]1NC(=O)[C@H](Cc2cccs2)NC(=O)[C@H](C)NC(=O)[C@H](CC(=O)O)NC(=O)[C@H](CC(C)C)NC(=O)[C@H]([C@@H](C)CC)NC(=O)[C@](C)(NC(=O)[C@H](C)NC(C)=O)CCCCCCC=CCOC(=O)N2CC[C@@](C(=O)N[C@@H](CCCNC(=N)N)C(=O)N[C@H](C(=O)N[C@@H](Cc3c[nH]c4ccccc34)C(N)=O)C(C)C)(C2)NC1=O", "note": "[FP0536c, Ac-A-R8-I-L-D-A-thi-I-MB-R-V-W-NH2]", "EC50": "> 5"},
      {"smiles": "CC[C@H](C)[C@@H]1NC(=O)[C@@](C)(NC(=O)[C@H](CCC(N)=O)NC(=O)[C@@H]2CCCN2C(C)=O)CCCCCC=CCOC(=O)N2CC[C@@](C(=O)N[C@@H](Cc3c[nH]cn3)C(=O)N[C@H](C(=O)N[C@@H](CCCNC(=N)N)C(=O)N[C@@H](CCCNC(=N)N)C(=O)N[C@H](C(=O)N[C@@H](Cc3c[nH]c4ccccc34)C(=O)N[C@@H](CCCNC(=N)N)C(N)=O)C(C)C)C(C)C)(C2)NC(=O)[C@H](CC(=O)O)NC(=O)[C@H](CC(C)C)NC1=O", "note": "(single isomer, unassigned) [FP0763c, Ac-P-Q-S7-I-L-D-MB-H-V-R-R-V-W-R-NH2]", "EC50": "0.1 to 0.5"},
      {"smiles": "CC[C@H](C)[C@@H]1NC(=O)[C@H](Cc2c[nH]cn2)NC(=O)[C@H](C)NC(=O)[C@H](CC(=O)O)NC(=O)[C@H](CC(C)C)NC(=O)[C@H]([C@@H](C)CC)NC(=O)[C@](C)(NC(=O)[C@H](C)NC(C)=O)CCN(C)C(=O)OCC=CCOC(=O)N(C)C[C@](C)(C(=O)N[C@@H](CCCNC(=N)N)C(=O)N[C@H](C(=O)N[C@@H](Cc2c[nH]c3ccccc23)C(N)=O)C(C)C)NC1=O", "note": "[FP0596c, Ac-A-MG-I-L-D-A-H-I-ME-R-V-W-NH2] (Ac-A[dαMeDab(Me)]ILDAHI[dαMeDap(Me)]RVW-NH2; linker 2-9 via X2)", "EC50": "0.5 to 5"},
      {"smiles": "CC[C@H](C)[C@@H]1NC(=O)C2(NC(=O)[C@H](CCC(N)=O)NC(=O)[C@@H]3CCCN3C(C)=O)CN(C2)C(=O)OCC=CCC[C@](C)(C(=O)N[C@@H](Cc2c[nH]cn2)C(=O)N[C@H](C(=O)N[C@@H](CCCNC(=N)N)C(=O)N[C@@H](CCCNC(=N)N)C(=O)N[C@H](C(=O)N[C@@H](Cc2c[nH]c3ccccc23)C(=O)N[C@@H](CCCNC(=N)N)C(N)=O)C(C)C)C(C)C)NC(=O)[C@H](CC(=O)O)NC(=O)[C@H](CC(C)C)NC1=O", "note": "(single isomer, unassigned) [FP0721c, Ac-P-Q-MA-I-L-D-R4-H-V-R-R-V-W-R-NH2]", "EC50": "0.5 to 5"},
      {"smiles": "CC[C@H](C)[C@@H]1NC(=O)[C@H](Cc2ccccn2)NC(=O)[C@H](C)NC(=O)[C@H](CC(=O)O)NC(=O)[C@H](CC(C)C)NC(=O)[C@H]([C@@H](C)CC)NC(=O)[C@](C)(NC(=O)[C@H](C)NC(C)=O)CCCCCCC=CCOC(=O)N2CC[C@@](C(=O)N[C@@H](CC3CCC3)C(=O)N[C@H](C(=O)N[C@@H](Cc3c[nH]c4ccccc34)C(N)=O)C(C)C)(C2)NC1=O", "note": "(single isomer, unassigned) [FP0565c Isomer 1, Ac-A-R8-I-L-D-A-2pyr-I-MB-Cba-V-W-NH2]", "EC50": "> 5"},
      {"smiles": "CC[C@H](C)[C@@H]1NC(=O)[C@H](Cc2ccccn2)NC(=O)[C@H](C)NC(=O)[C@H](CC(=O)O)NC(=O)[C@H](CC(C)C)NC(=O)[C@H]([C@@H](C)CC)NC(=O)[C@](C)(NC(=O)[C@H](C)NC(C)=O)CCCCCCC=CCOC(=O)N2CC[C@@](C(=O)N[C@@H](C)C(=O)N[C@H](C(=O)N[C@@H](Cc3c[nH]c4ccccc34)C(N)=O)C(C)C)(C2)NC1=O", "note": "(single isomer, unassigned) [FP0554c Isomer 1, Ac-A-R8-I-L-D-A-2pyr-I-MB-A-V-W-NH2]", "EC50": "> 5"},
      {"smiles": "CC[C@H](C)[C@@H]1NC(=O)[C@H](Cc2c[nH]cn2)NC(=O)[C@H](C)NC(=O)[C@H](CC(=O)O)NC(=O)[C@H](CC(C)C)NC(=O)[C@H]([C@@H](C)CC)NC(=O)[C@](C)(NC(=O)[C@H](C)NC(C)=O)CCCCC=CCOC(=O)N(C)CC[C@@](C)(C(=O)N[C@@H](CCCNC(=N)N)C(=O)N[C@H](C(=O)N[C@@H](Cc2c[nH]c3ccccc23)C(N)=O)C(C)C)NC1=O", "note": "(single isomer, unassigned) [FP0502c Isomer 1, Ac-A-R6-I-L-D-A-H-I-MF-R-V-W-NH2]", "EC50": "< 0.1"},
      {"smiles": "CC[C@H](C)[C@@H]1NC(=O)[C@H](Cc2ccco2)NC(=O)[C@H](C)NC(=O)[C@H](CC(=O)O)NC(=O)[C@H](CC(C)C)NC(=O)[C@H]([C@@H](C)CC)NC(=O)[C@](C)(NC(=O)[C@H](C)NC(C)=O)CCCCCCC=CCOC(=O)N2CC[C@@](C(=O)N[C@@H](CCCNC(=N)N)C(=O)N[C@H](C(=O)N[C@@H](Cc3c[nH]c4ccccc34)C(N)=O)C(C)C)(C2)NC1=O", "note": "[FP0541c, Ac-A-R8-I-L-D-A-fur-I-MB-R-V-W-NH2]", "EC50": "> 5"},
      {"smiles": "CC[C@H](C)[C@@H]1NC(=O)[C@]2(NC(=O)[C@H](CCC(N)=O)NC(=O)[C@@H]3CCCN3C(C)=O)CCN(CC=CCCCCC[C@@](C)(C(=O)N[C@@H](Cc3c[nH]cn3)C(=O)N[C@H](C(=O)N[C@@H](CCCNC(=N)N)C(=O)N[C@@H](CCCNC(=N)N)C(=O)N[C@H](C(=O)N[C@@H](Cc3c[nH]c4ccccc34)C(=O)N[C@@H](CCCNC(=N)N)C(N)=O)C(C)C)C(C)C)NC(=O)[C@H](CC(=O)O)NC(=O)[C@H](CC(C)C)NC1=O)C2", "note": "(single isomer, unassigned) [FP0753a, Ac-P-Q-MB-I-L-D-S7-H-V-R-R-V-W-R-NH2]", "EC50": "> 5"},
      {"smiles": "CC[C@H](C)[C@@H]1NC(=O)[C@H](Cc2c[nH]cn2)NC(=O)[C@H](C)NC(=O)[C@H](CC(=O)O)NC(=O)[C@H](CC(C)C)NC(=O)[C@H]([C@@H](C)CC)NC(=O)[C@](C)(NC(=O)[C@H](C)NC(C)=O)CCCN(C)CC=CCCC[C@@](C)(C(=O)N[C@@H](CCCNC(=N)N)C(=O)N[C@H](C(=O)N[C@@H](Cc2c[nH]c3ccccc23)C(N)=O)C(C)C)NC1=O", "note": "[FP0506a, Ac-A-MI-I-L-D-A-H-I-S5-R-V-W-NH2] (Ac-A[X12]ILDAHI[S5]RVW-NH2; staple 2-9)", "EC50": "0.5 to 5"}
    ]},
    {"target": "T1, full-length beta-catenin (Axin site)", "test": "Competition fluorescence polarization assay (Axin site probe)", "assay_type": "binding", "details": "competition with FITC labeled Axin-site probe, 15 nM full-length beta-catenin; read-out: FP EC50", "how_it_was_run": "as §1", "units": {"EC50": "µM"}, "values": [
      {"smiles": "CC[C@H](C)[C@@H]1NC(=O)[C@@](C)(NC(=O)[C@H](CCC(N)=O)NC(=O)[C@@H]2CCCN2C(C)=O)CCCC=CCOC(=O)N2CC(C(=O)N[C@@H](Cc3c[nH]cn3)C(=O)N[C@H](C(=O)N[C@@H](CCCNC(=N)N)C(=O)N[C@@H](CCCNC(=N)N)C(=O)N[C@H](C(=O)N[C@@H](Cc3c[nH]c4ccccc34)C(=O)N[C@@H](CCCNC(=N)N)C(N)=O)C(C)C)C(C)C)(C2)NC(=O)[C@H](CC(=O)O)NC(=O)[C@H](CC(C)C)NC1=O", "note": "(single isomer, unassigned) [FP-0734c, Ac-P-Q-S5-I-L-D-Az-H-V-R-R-V-W-R-NH2]", "EC50": "> 5"}
    ]}
  ]
}
